Source: patent US10136642B2, “Composition of peracetic acid and at least one organic fungicide for the control and/or the treatment of diseases associated with the presence of pathogens, and method, use and kit involving said composition” (priority 2015, dated 2018)
Where a name gives a salt, the structure may show the parent alone.

Key:
Erwinia amylovora = test: Example 5 in vitro agar well inhibition of Erwinia amylovora; format: cell-based; settings: LBA plates, 25° C., 72 hours; for bacterial inhibition zone (diameter): 1 cm center well
Procedure: Virgin Luria-Bertani agar (LBA) plates were inoculated in triplicate each with 1 mL of concentrated Erwinia amylovora suspension by aseptically spreading the bacteria uniformly onto the agar surfaces. A center well 1 cm in diameter was punched into the agar of each plate. Test products were added dropwise into each of these center wells until the liquid level just reached the agar surface (normally 5-7 drops were required). Plates were incubated at 25° C. for 72 hours then observed for evidence of bacterial growth inhibition.
Treatment List • 1. NEO-BOOST at 3.6 g/L. • 2. FireLine® [oxytetracycline hydrochloride 17% w/w] at 1.2 g/L • 3. FireWall® [streptomycin sulfate 17% w/w] at 0.6 g/L • 4. FireLine® at 1.2 g/L+FireWall® at 0.6 g/L • 5. NEO-BOOST at 3.6 g/L+FireLine® at 1.2 g/L • 6. NEO-BOOST at 3.6 g/L+FireWall® at 0.6 g/L • 7. NEO-BOOST at 3.6 g/L+FireLine® at 1.2 g/L+FireWall® at 0.6 g/L 8. Water.

[1] = Example 8 amount of peracetic acid in solution over time (NEO-PURE Liquid with/without Quadris); format: physicochemical; settings: diluted NEO-PURE Liquid
From the text: Another liquid organic formulation based on pre-formed peracetic acid, called NEO-PURE™ Liquid, was formulated to study its compatibility with single-site fungicides such as azoles and strobilurins.
The above formulation contains a minimum of 5% w/w active peracetic acid and 20% w/w hydrogen peroxide.

[2] = Example 4 HPLC compatibility: degradation of azoxystrobin by NEO-BOOST 18/18; format: physicochemical; settings: NEO-BOOST 18/18 at 3.6 g/L combined with 0.5 g/L azoxystrobin as Quadris
Procedure: NEO-BOOST 18/18 at 3.6 g/L was combined with 0.5 g/L azoxystrobin in the form of Quadris®. In addition, several controls were prepared consisting of respectively: 0.5 g/L azoxystrobin in the form of Quadris®, and NEO-BOOST 18/18 at 3.6 g/L. All of the above were then converted or rendered into a form that could be analyzed by high-performance liquid chromatography (HPLC). The HPLC column was first calibrated with the reference standard azoxystrobin and then the samples were injected into the column at predetermined intervals to see whether the Quadris® was degraded at all by the NEO-BOOST 18/18.

Row | SMILES | bacterial inhibition zone (diameter) (Erwinia amylovora) | depth of inhibition through the bacterial lawn to the agar surface (Erwinia amylovora) | decomposition of peracetic acid by the presence of azoxystrobin over time [1] | degradation of azoxystrobin by NEO-BOOST (HPLC) [2]
1 | [H]/N=C(/N)N[C@H]1[C@H](O)[C@@H](O)[C@H](O[C@@H]2O[C@@H](C)[C@](O)(C=O)[C@H]2O[C@@H]2O[C@@H](CO)[C@H](O)[C@@H](O)[C@@H]2NC)[C@@H](N/C(N)=N\[H])[C@@H]1O [streptomycin, streptomycin sulfate] | about 3 cm | penetrated all the way down to the agar surface | – | –
2 | CO/C=C(/C(=O)OC)c1ccccc1Oc1cc(Oc2ccccc2C#N)ncn1 [azoxystrobin, methyl (E)-2-{2-[6-(2-cyanophenoxy)pyrimidin-4-yloxy]phenyl}-3-methoxyacrylate] | – | – | not decomposed | did not degrade azoxystrobin at all
3 | CN(C)[C@@H]1C(=O)C(C(N)=O)=C(O)[C@@]2(O)C(=O)C3=C(O)c4c(O)cccc4[C@@](C)(O)[C@H]3[C@H](O)[C@@H]12.Cl [Oxytetracycline, oxytetracycline hydrochloride] | about 3 cm | penetrated all the way down to the agar surface | – | –
